The EC50 is the concentration at which the effect is half-maximal.

What all share (assay type): biochemical
One assay deals with JAK1 (Homo sapiens (Human), UniProt P23458). Nature of the assay: JAK kinase assay (HTRF), JAK1. The settings on record: catalytic domain, ATP at Km (7 μM). The method, then:
(§1) Human baculovirus-expressed JAK1, 2, 3 and TYK2 were purchased from Carna Biosciences, Inc. All four purified enzymes contain only the catalytic domain. JAK1 (aa 850-1154) and TYK2 (aa 871-1187) are expressed with an N-terminally fused GST-tag, and JAK2 and JAK3 with an N-terminally fused His-tag.
(§2) Inhibition of phosphorylation of a synthetic peptide was measured in an HTRF-based assay using the TK substrate-Biotin from the Cisbio HTRFKinEASE TK kit. First, 2 μl of TK solution (TK substrate-biotin in kinase buffer [1× enzymatic buffer from HTRFKinEASE TK kit, 1 mM DTT]) is added to a plate containing 1 μl prediluted compound (final assay concentration DMSO: 0.75%). Then, 5 μl kinase-ATP mix (prepared in kinase buffer) is added to the wells and the plates are incubated at RT for 20-30 min. For all four kinases a concentration of ATP that corresponded to the Km for ATP was used. The final concentrations of buffers, substrate, kinase and ATP were: JAK1: 50 mM Hepes buffer pH 7.0, 0.01% BSA, 10 mM MgCl2, 1 mM DTT, 7 μM ATP, 50 nM SEB, 1 μM TK Substrate-Biotin and 5 ng JAK1; JAK2: 50 mM Hepes buffer pH 7.0, 0.01% BSA, 5 mM MgCl2, 1 mM DTT, 4 μM ATP, 1 μM TK Substrate-Biotin and 0.1 ng JAK2; JAK3: 50 mM Hepes buffer pH 7.0, 0.01% BSA, 5 mM MgCl2, 1 mM DTT, 2 μM ATP, 1 μM TK Substrate-Biotin and 0.3 ng JAK3; TYK2: 50 mM Hepes buffer pH 7.0, 0.01% BSA, 5 mM MgCl2, 1 mM DTT, 13 μM ATP, 50 nM SEB, 1 μM TK Substrate-Biotin and 0.8 ng TYK2. Thereafter, the kinase reaction is stopped by adding 4 μl detection mix (final concentrations: 50 mM Hepes buffer pH 7.0, 0.01% BSA, 0.8 M KF, 20 mM EDTA, 42 nM Streptavidin-XL665 and 1:400 STK Ab Cryptate) and the plates are incubated overnight in the dark. The HTRF signal is read using an Envision plate reader.
For orientation: Time-resolved FRET reads energy transfer from a long-lived donor to a nearby acceptor.

The next assay has as its target TYK2 (Homo sapiens (Human), UniProt P29597). Nature of the assay: JAK kinase assay (HTRF), TYK2. The conditions noted are these: catalytic domain, ATP at Km (13 μM). The protocol: as §1, §2
(§3) In Table 1 selected JAK kinase inhibitory activities are listed along with analytical tR and observed M+H^+ data (UPLC-MS method 7).

Another assay has as its target JAK3 (Homo sapiens (Human), UniProt P52333). Nature of the assay: JAK kinase assay (HTRF), JAK3. The settings on record: catalytic domain, ATP at Km (2 μM). The protocol: as §1, §2, §3
The target in the next assay is JAK2 (Homo sapiens (Human), UniProt O60674). Briefly: JAK kinase assay (HTRF), JAK2. The conditions noted are these: catalytic domain, ATP at Km (4 μM). The method, then: as §1, §2
JAK2, sequence (O60674 849-1124): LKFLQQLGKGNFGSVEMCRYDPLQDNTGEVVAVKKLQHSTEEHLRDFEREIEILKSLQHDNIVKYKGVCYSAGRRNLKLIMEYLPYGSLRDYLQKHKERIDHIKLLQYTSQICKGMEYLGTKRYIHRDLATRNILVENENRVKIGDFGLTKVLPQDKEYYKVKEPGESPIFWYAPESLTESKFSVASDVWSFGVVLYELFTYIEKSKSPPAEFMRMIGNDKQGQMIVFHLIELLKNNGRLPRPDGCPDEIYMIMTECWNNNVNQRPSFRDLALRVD

JAK3, sequence (P52333 822-1111): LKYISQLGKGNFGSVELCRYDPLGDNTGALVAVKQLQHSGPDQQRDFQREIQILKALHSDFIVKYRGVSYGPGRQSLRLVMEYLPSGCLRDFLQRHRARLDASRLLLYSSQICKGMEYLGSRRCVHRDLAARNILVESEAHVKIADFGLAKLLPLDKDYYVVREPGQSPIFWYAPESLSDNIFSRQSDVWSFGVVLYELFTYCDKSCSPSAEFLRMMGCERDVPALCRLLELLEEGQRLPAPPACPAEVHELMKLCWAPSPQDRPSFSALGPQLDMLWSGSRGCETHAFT
JAK1, sequence (P23458 850-1154): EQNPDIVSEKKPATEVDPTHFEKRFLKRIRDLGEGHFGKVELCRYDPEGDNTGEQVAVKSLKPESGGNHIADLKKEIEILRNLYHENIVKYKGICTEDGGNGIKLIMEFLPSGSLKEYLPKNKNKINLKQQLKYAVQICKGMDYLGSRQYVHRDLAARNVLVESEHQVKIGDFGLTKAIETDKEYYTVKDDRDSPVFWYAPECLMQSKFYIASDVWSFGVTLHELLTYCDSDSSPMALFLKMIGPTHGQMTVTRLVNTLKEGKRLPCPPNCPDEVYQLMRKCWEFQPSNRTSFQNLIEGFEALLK
TYK2, sequence (P29597 871-1187): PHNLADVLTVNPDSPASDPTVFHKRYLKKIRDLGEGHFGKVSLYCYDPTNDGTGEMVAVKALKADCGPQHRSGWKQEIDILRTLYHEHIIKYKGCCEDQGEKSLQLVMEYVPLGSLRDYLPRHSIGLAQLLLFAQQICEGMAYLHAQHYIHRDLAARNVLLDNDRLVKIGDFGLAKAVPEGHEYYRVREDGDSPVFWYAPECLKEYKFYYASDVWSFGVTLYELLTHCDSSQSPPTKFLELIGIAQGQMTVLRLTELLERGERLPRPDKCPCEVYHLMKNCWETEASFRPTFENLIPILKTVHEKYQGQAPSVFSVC

Consider `O=C(NC[C@H](O)c1ccc(F)cn1)[C@H]1CCN(c2ncnc3[nH]ccc23)CC12CC2` [Example 46, (8S)-N-[(2S)-2-(5-fluoro-2-pyridyl)-2-hydroxy-ethyl]-5-(7H-pyrrolo[2,3-d]pyrimidin-4-yl)-5-azaspiro[2.5]octane-8-carboxamide], for which the EC50 at JAK1 came to 3.1 nM; at TYK2, 48.1 nM; at JAK3, 23.8 nM; on JAK2, 8.8 nM.

For `N#Cc1ccc([C@H](CO)NC(=O)[C@H]2CCN(c3ncnc4[nH]ccc34)CC23CC3)nc1` [Example 47, (8S)-N-[(1R)-1-(5-cyano-2-pyridyl)-2-hydroxy-ethyl]-5-(7H-pyrrolo[2,3-d]pyrimidin-4-yl)-5-azaspiro[2.5]octane-8-carboxamide], the EC50 at JAK1 was 3.1 nM; at TYK2, 176 nM; on JAK3, 32.4 nM; on JAK2 it was 13.7 nM.

As for `O=C(NCc1ccc(F)cc1)C1CCN(c2ncnc3[nH]ccc23)CC12CC2` (stereo not shown) [Example 53, N-[(4-fluorophenyl)methyl]-5-(7H-pyrrolo[2,3-d]pyrimidin-4-yl)-5-azaspiro[2.5]octane-8-carboxamide], the EC50 at JAK1 came to 3.6 nM; on TYK2, 106 nM; on JAK3, 20.8 nM; on JAK2 it was 8.9 nM.

As for `NS(=O)(=O)c1cccc(CNC(=O)C2CCN(c3ncnc4[nH]ccc34)CC23CC3)c1` (stereo not shown) [Example 55, 5-(7H-pyrrolo[2,3-d]pyrimidin-4-yl)-N-[(3-sulfamoylphenyl)methyl]-5-azaspiro[2.5]octane-8-carboxamide], the EC50 was found to be 3.7 nM on JAK1, 141 nM at TYK2, 13.4 nM at JAK3 and 18.5 nM on JAK2.

`N#Cc1cccc([C@H](CO)NC(=O)[C@H]2CCN(c3ncnc4[nH]ccc34)CC23CC3)c1` [Example 67, (8S)-N-[(1R)-1-(3-cyanophenyl)-2-hydroxy-ethyl]-5-(7H-pyrrolo[2,3-d]pyrimidin-4-yl)-5-azaspiro[2.5]octane-8-carboxamide]: the EC50 turned out to be 5.1 nM at JAK1, 45 nM on TYK2, 13.8 nM at JAK3 and 5.2 nM at JAK2.

As for `COc1cc(C#N)ccc1CNC(=O)[C@H]1CCN(c2ncnc3[nH]ccc23)CC12CC2` [Example 71, (8S)-N-[(4-cyano-2-methoxy-phenyl)methyl]-5-(7H-pyrrolo[2,3-d]pyrimidin-4-yl)-5-azaspiro[2.5]octane-8-carboxamide], the EC50 on JAK1 was found to be 5.8 nM; at TYK2 it was 121 nM; on JAK3, 63.1 nM; on JAK2, 14.2 nM.

With `Cc1ccc([C@H](O)[C@H](C)NC(=O)[C@H]2CCN(c3ncnc4[nH]ccc34)CC23CC3)cc1` [Example 73, (8S)-N-[(1S,2S)-2-hydroxy-1-methyl-2-(p-tolyl)ethyl]-5-(7H-pyrrolo[2,3-d]pyrimidin-4-yl)-5-azaspiro[2.5]octane-8-carboxamide], the EC50 came out at 6.1 nM on JAK1, 171 nM at TYK2, 30.9 nM on JAK3 and 8.3 nM on JAK2.

Regarding `Cc1cc([C@H](O)[C@H](C)NC(=O)[C@H]2CCN(c3ncnc4[nH]ccc34)CC23CC3)ncc1F` [Example 75, (8S)-N-[(1S,2R)-2-(5-fluoro-4-methyl-2-pyridyl)-2-hydroxy-1-methyl-ethyl]-5-(7H-pyrrolo[2,3-d]pyrimidin-4-yl)-5-azaspiro[2.5]octane-8-carboxamide], the EC50 at JAK1 worked out at 6.1 nM; at TYK2, 50.2 nM; at JAK3 it was 102 nM; at JAK2 it was 16.3 nM.

Take `Cc1cc(F)ccc1[C@H](CO)NC(=O)[C@H]1CCN(c2ncnc3[nH]ccc23)CC12CC2` [Example 77, (8S)-N-[(1R)-1-(4-fluoro-2-methyl-phenyl)-2-hydroxy-ethyl]-5-(7H-pyrrolo[2,3-d]pyrimidin-4-yl)-5-azaspiro[2.5]octane-8-carboxamide]: the EC50 was 6.2 nM on JAK1, 115 nM on TYK2, 31.3 nM at JAK3 and 16.3 nM on JAK2.

Regarding `C[C@](CO)(NC(=O)[C@H]1CCN(c2ncnc3[nH]ccc23)CC12CC2)c1ccc(C#N)cn1` [Example 78, (8S)-N-[(1S)-1-(5-cyano-2-pyridyl)-2-hydroxy-1-methyl-ethyl]-5-(7H-pyrrolo[2,3-d]pyrimidin-4-yl)-5-azaspiro[2.5]octane-8-carboxamide], the EC50 at JAK1 was determined as 6.3 nM; on TYK2, 231 nM; at JAK3 it was 39.4 nM; on JAK2, 17 nM.

Consider `O=C(N[C@H](CO)C(=O)OCc1ccccc1)[C@H]1CCN(c2ncnc3[nH]ccc23)CC12CC2` [Example 80, benzyl (2R)-3-hydroxy-2-[[(8S)-5-(7H-pyrrolo[2,3-d]pyrimidin-4-yl)-5-azaspiro[2.5]octane-8-carbonyl]amino]propanoate], for which the EC50 worked out at 6.7 nM on JAK1, 119 nM at TYK2, 24.3 nM on JAK3 and 21.8 nM on JAK2.

Regarding `O=C(NCc1cccc(F)c1)C1CCN(c2ncnc3[nH]ccc23)CC12CC2` (stereo not shown) [Example 81, N-[(3-fluorophenyl)methyl]-5-(7H-pyrrolo[2,3-d]pyrimidin-4-yl)-5-azaspiro[2.5]octane-8-carboxamide], the EC50 on JAK1 worked out at 6.7 nM; on TYK2 it was 117 nM; at JAK3 it was 37.7 nM; at JAK2, 14.1 nM.

In the case of `N#C[C@H]1CC[C@H](CNC(=O)C2CCN(c3ncnc4[nH]ccc34)CC23CC3)C1` (stereo partly drawn) [Example 83, N-[[(1S,3S)-3-cyanocyclopentyl]methyl]-5-(7H-pyrrolo[2,3-d]pyrimidin-4-yl)-5-azaspiro[2.5]octane-8-carboxamide], the EC50 at JAK1 worked out at 6.8 nM; on TYK2, 390 nM; on JAK3, 44.3 nM; at JAK2 it was 22.6 nM.

As to `C[C@@H](NC(=O)[C@H]1CCN(c2ncnc3[nH]ccc23)CC12CC2)c1ccc(C#N)c(F)c1` [Example 84, (8S)-N-[(1R)-1-(4-cyano-3-fluoro-phenyl)ethyl]-5-(7H-pyrrolo[2,3-d]pyrimidin-4-yl)-5-azaspiro[2.5]octane-8-carboxamide], the EC50 stood at 7 nM on JAK1, 249 nM at TYK2, 55.5 nM on JAK3 and 24.1 nM on JAK2.

For the molecule `O=C(NCc1ccncc1)C1CCN(c2ncnc3[nH]ccc23)CC12CC2` (stereo not shown) [Example 85, N-(4-pyridylmethyl)-5-(7H-pyrrolo[2,3-d]pyrimidin-4-yl)-5-azaspiro[2.5]octane-8-carboxamide], the EC50 came out at 7.1 nM on JAK1, 798 nM at TYK2, 42.8 nM on JAK3 and 28.7 nM on JAK2.

On to `O=C(N[C@H](CO)C(=O)OCC1CCCC1)[C@H]1CCN(c2ncnc3[nH]ccc23)CC12CC2` [Example 87, cyclopentylmethyl (2R)-3-hydroxy-2-[[(8S)-5-(7H-pyrrolo[2,3-d]pyrimidin-4-yl)-5-azaspiro[2.5]octane-8-carbonyl]amino]propanoate], for which the EC50 on JAK1 stood at 7.2 nM; on TYK2, 124 nM; at JAK3 it was 43 nM; at JAK2 it was 25.5 nM.

`O=C(NCC1(O)CCCC1)C1CCN(c2ncnc3[nH]ccc23)CC12CC2` (stereo not shown) [Example 88, N-[(1-hydroxycyclopentyl)methyl]-5-(7H-pyrrolo[2,3-d]pyrimidin-4-yl)-5-azaspiro[2.5]octane-8-carboxamide]: the concentration for a half-maximal effect (EC50) amounted to 7.2 nM on JAK1, 407 nM on TYK2, 58.6 nM on JAK3 and 23.7 nM at JAK2.

Take `CCc1cc(C#N)ccc1[C@H](CO)NC(=O)[C@H]1CCN(c2ncnc3[nH]ccc23)CC12CC2` [Example 89, (8S)-N-[(1R)-1-(4-cyano-2-ethyl-phenyl)-2-hydroxy-ethyl]-5-(7H-pyrrolo[2,3-d]pyrimidin-4-yl)-5-azaspiro[2.5]octane-8-carboxamide]: the EC50 on JAK1 stood at 7.5 nM; at TYK2 it was 284 nM; on JAK3, 53.7 nM; at JAK2 it was 31 nM.

As to `COc1ccc(CNC(=O)C2CCN(c3ncnc4[nH]ccc34)CC23CC3)cc1` (stereo not shown) [Example 90, N-[(4-methoxyphenyl)methyl]-5-(7H-pyrrolo[2,3-d]pyrimidin-4-yl)-5-azaspiro[2.5]octane-8-carboxamide], the EC50 on JAK1 came out at 8.2 nM; at TYK2, 288 nM; at JAK3, 34.5 nM; at JAK2, 19.6 nM.

The record behind these values is patent US10799507B2, “5-(7H-pyrrolo[2,3-d]pyrimidin-4-yl)-5-azaspiro[2.5]octane-8-carboxylic acid derivatives as novel JAK kinase inhibitors” (LEO Pharma A/S, priority 2017, dated 2020).
